“Also recorded” adds a separate entry of the source.
Legend:
[1] = biological target: S1P1 (Homo sapiens, UniProt P21453); assay: Beta arrestin-TANGO assay (luciferase reporter) in HTLA cells transfected with Nef
Description: The role of beta arrestin in GPCR regulation, including S1P1 allows for the design and use of an S1P1 Arrestin-Tango expressing cell line (TANGO construct commercially available from AddGene) to test S1P1 signaling and its inhibitors. […] Upon activation of the S1P1 by an agonist, β-arrestin is recruited to the C-terminus of the receptor. This is followed by cleavage of the GPCR fusion protein at the TEV protease site. Cleavage results in the release of the tTA transcription factor, which after transport to the nucleus, activates transcription of the luciferase reporter gene. Thus, potential SNP1 inhibitors can be screened using the S1P1 Arresting Tango assay looking for an increase of luciferase activity indicating an increase in S1P1 signalling.
The role of beta arrestin in GPCR regulation, including S1P1, allows for the design and use of an S1P1 Arrestin-Tango expressing cell line (TANGO construct commercially available from AddGene) to test S1P1 signaling and its inhibitors. […] Upon activation of the S1P1 by an agonist, β-arrestin is recruited to the C-terminus of the receptor. This is followed by cleavage of the GPCR fusion protein at the TEV protease site. Cleavage results in the release of the tTA transcription factor, which after transport to the nucleus, activates transcription of the luciferase reporter gene.
Specifically, HTLA cells were transfected with NEF wt and analyzed for luciferase activity in response to increasing concentrations of sphingosine-phosphate (S1P).

[2] = system: Nef-ER T1 cells; assay: Adhesion of Nef-ER T cells to endothelial cells (HUVEC co-culture, FACS); type: cell-based; conditions: HIV-Nef expressing T cells (Nef-ER T1) on HUVECs; 10 μM atorvastatin pre-incubation at least 12 hours; FIG. 5
Description: Nef was activated in Nef-ER cells by culturing them with RPMI1640+10% FBS (fetal bovine serum) and 1 μM 4-hydrotamoxifen for at least 6 hours or overnight at 37° C. For inhibitor use, the Nef-ER cells were pre-incubated for at least 12 hours with 10 μM atorvastatin. Other inhibitors may require shorter pre-incubations.
Approximately 100K HUVECS were seeded per well in a collagen-coated 6-well plate. Cells were incubated overnight in EGM2(LONZA) medium. Nef-ER cells were stained using 5 μM Calcein AM (Ref C3100MP, Fischer Scientific) in 1 mL of staining solution and incubated for 30 minutes at 37° C. The cells were centrifuged at 300 g for 5 min, and the cell pellet was resuspended in 2 mL RPMI+10% FBS. Cells were centrifuged at 300 g for 5 min and the supernatant was removed.
After staining, 1 μL of 1 mM 4-Hydrotamoxifen per ml of EGM2(LONZA) medium was added for final concentration of 1 μM. Stained T-cells were resuspended in EGM2 media at final concentration of 250,000 cells per ml. 250,000 stained T-cells were added to each well of 6-well plate of HUVECs for co-culture (with or without 10 μM atorvastatin to maintain inhibition) and incubated for 60 minutes. The plate was gently shaken one time after 30 minutes. Cells were washed very gently 3 times with PBS (phosphate buffered saline). Cells were then trypsinized and analyzed by fluorescence activated cell sorting (FACS).

[3] = system: GPCRs-Gαi signaling; conditions: pretreatment of lymphocytes with PTX; cited from earlier work

Chain of S1P1 (P21453 whole entry): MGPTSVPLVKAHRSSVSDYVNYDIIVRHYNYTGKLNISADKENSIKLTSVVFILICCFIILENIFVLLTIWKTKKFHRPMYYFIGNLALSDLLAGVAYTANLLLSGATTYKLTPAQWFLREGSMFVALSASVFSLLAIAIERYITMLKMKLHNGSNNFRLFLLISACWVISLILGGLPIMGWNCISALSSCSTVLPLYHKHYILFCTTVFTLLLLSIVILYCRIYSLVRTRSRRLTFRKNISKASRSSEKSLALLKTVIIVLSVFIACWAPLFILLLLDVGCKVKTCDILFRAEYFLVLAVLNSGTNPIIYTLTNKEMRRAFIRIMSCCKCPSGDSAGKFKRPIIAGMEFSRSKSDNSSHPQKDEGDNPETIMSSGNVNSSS

sphingosine-phosphate [S1P]
β-arrestin recruitment (luciferase activity) in response to increasing concentrations ([1]; HTLA cells transfected with NEF wt, increasing concentrations of S1P, FIG. 7): more activation | β-arrestin activation (luciferase activity) ([1]; HTLA cells transfected with Nef, treated with 1mM S1P and/or FTY720, FIG. 8): significantly more activation; also recorded: increase in β-arrestin activation

CC(C)c1c(C(=O)Nc2ccccc2)c(-c2ccccc2)c(-c2ccc(F)cc2)n1CC[C@@H](O)C[C@@H](O)CC(=O)O [statin, atorvastatin]
T cell adhesion [2]: reduces T cell adhesion

Pertussis toxin
retention of T cells in lymph nodes by fingolimod [3]: prevented the retention of T cells in lymph nodes

— US20190010217A1, “MOBILIZING HIV-INFECTED CELLS FROM LYMPHATIC RESERVOIRS” (INDIANA UNIVERSITY RESEARCH & TECHNOLOGY CORPORATION, priority 2016, published 2019)
